Source: article PMC6385020 (Molecules, 2019)
“And” between values parts separate entries of the source, which are not always exact repeats. Equal entries are not always repeated. One block for each compound: values may come before it.

Legend:
[1] = tested on: ds26 (DNA, duplex) CAATCGGATCGAATTCGATCCGATTG; experiment: G4-FID, thiazole orange displacement; details: 100 mM KCl; 10 mM lithium cacodylate pH 7.3, 1% DMSO; thiazole orange displaced; 1 µM compound, 0.25 µM DNA
[2] = tested on: 21CTA (DNA, G4) AGGGCTAGGGCTAGGGCTAGGG; experiment: G4-FID, thiazole orange displacement; details: 100 mM KCl; 10 mM lithium cacodylate pH 7.3, 1% DMSO; thiazole orange displaced; 1 µM compound, 0.25 µM DNA
[3] = tested on: c-myc (myc22) (DNA, G4) TGAGGGTGGGTAGGGTGGGTAA; experiment: G4-FID, thiazole orange displacement; details: 100 mM KCl; 10 mM lithium cacodylate pH 7.3, 1% DMSO; thiazole orange displaced; 1 µM compound, 0.25 µM DNA
[4] = tested on: 22AG (DNA, G4) AGGGTTAGGGTTAGGGTTAGGG; experiment: G4-FID, thiazole orange displacement; details: 100 mM KCl; 10 mM lithium cacodylate pH 7.3, 1% DMSO; thiazole orange displaced; 1 µM compound, 0.25 µM DNA
[5] = tested on: CEB25-WT (DNA, G4) AAGGGTGGGTGTAAGTGTGGGTGGGT; experiment: G4-FID, thiazole orange displacement; details: 100 mM KCl; 10 mM lithium cacodylate pH 7.3, 1% DMSO; thiazole orange displaced; 1 µM compound, 0.25 µM DNA
[6] = tested on: A2780 ovarian cancer cell line; experiment: Cell growth (proliferation), 96 h treatment; format: cell-based, human; details: A2780, 96 h treatment
Procedure: (§1) The ovarian carcinoma cell lines and human normal lung cells were purchased from ATCC and were grown in complete RPMI medium (ovarian) and DMEM (human lung cells) supplemented with 10% fetal calf serum, in the presence of penicillin, streptomycin. The resistance of A2780cis cells to cisplatin was maintained by monthly treatment with 1 µM cisplatin for 4 days. Concentrated stock solutions of complexes were conserved at −20 °C (DMSO/Water) and freshly diluted in water just before the experiments. Cells were treated with various concentrations of platinum complexes at 37 °C under humidity and 5% CO2 conditions for 96 h. Cellular growth was quantified using the particle counter MOXI (VWR).

[7] = tested on: A2780cis cisplatin-resistant ovarian cancer cell line; experiment: Cell growth (proliferation), 96 h treatment; format: cell-based, human; details: 96 h treatment
Procedure: as §1

[8] = tested on: CCD19Lu normal lung cell line; experiment: Cell growth (proliferation), 96 h treatment; format: cell-based, human
Procedure: as §1

[9] = tested on: F-21-T (DNA, G4) GGGTTAGGGTTAGGGTTAGGG; experiment: FRET-melting; details: 10 mM KCl, 90 mM LiCl; 10 mM lithium cacodylate pH 7.3; 1 µM compound, 0.2 µM DNA
[10] = tested on: F-21CTA-T (DNA, G4) AGGGCTAGGGCTAGGGCTAGGG; experiment: FRET-melting; details: 1 mM KCl, 99 mM LiCl; 10 mM lithium cacodylate pH 7.3; 1 µM compound, 0.2 µM DNA
[11] = tested on: F-CEB25-WT-T (DNA, G4) AGGGTGGGTGTAAGTGTGGGTGGGT; experiment: FRET-melting; details: 1 mM KCl, 99 mM LiCl; 10 mM lithium cacodylate pH 7.3; 1 µM compound, 0.2 µM DNA
[12] = tested on: F-myc-T (DNA, G4) TGAGGGTGGGTAGGGTGGGTAA; experiment: FRET-melting; details: 1 mM KCl, 99 mM LiCl; 10 mM lithium cacodylate pH 7.3; 1 µM compound, 0.2 µM DNA
[13] = tested on: c-myc G4; parameters: method as in PMID 21528379; details: cited from earlier work
[14] = tested on: 22AG G4; parameters: method as in PMID 28825434; details: K+100 buffer, 20 °C; cited from earlier work
[15] = tested on: 21CTA G4; parameters: method as in PMID 21528379; details: cited from earlier work
[16] = tested on: all the tested G4s structures; parameters: method as in PMID 21528379; details: cited from earlier work

% TO displacement [1]: < 20%
% TO displacement [2]: > 80%
% TO displacement [3]: > 80%
% TO displacement [4]: > 80%
% TO displacement [5]: > 80%
SMILES: [Cl-].[Pt+2].c1cc(-c2ccc3ccccc3n2)nc(-c2ccc3ccccc3n2)c1

SMILES: N.N.[Cl][Pt][Cl] [cisplatin, reference compound]
IC50 [6]: 330 nM
Resistance Factor (IC50ratio A2780cis/A2780) [7]: 9.1
IC50 ([7]; A2780cis): 3000 nM
IC50 [8]: 200 nM

SMILES: [C-]#Cc1ccccc1.[Pt+2].c1ccc(-c2cccc(-c3ccccn3)n2)nc1
binding [9]: no
binding [10]: no
binding [11]: no
binding [12]: no

SMILES: CN1C(=Cc2cc[n+](C)c3ccccc23)Sc2ccccc21 [TO, Thiazole Orange]
KA [13]: 5 × 10^6 M^−1 and 5 × 10^6 (b) M^−1
KA [14]: 1 × 10^6 (a) M^−1
KA [15]: 1 × 10^6 (b) M^−1
affinity constants towards all the tested G4s structures (Ka) [16]: ~ 10^6 M^−1
